# Reference: patent publication US8822168B2, “Assays for detecting small nuclear ribonucleoprotein particle assembly and survival of motor neurons activity” (The Trustees of the University of Pennsylvania, priority 2005, dated 2014)
# “Also recorded” adds a separate entry of the source.
# Assays:
# SMN complex = experiment: high-throughput 384-well SMN complex activity / snRNP assembly assay; format: biochemical; conditions: test compound added to labeled RNA, cell extract and ATP; identified inhibitors, FIG. 10
# Source text: The present assay comprises labeling an RNA, in the case of an assay to measure Sm core activity, the RNA is snRNA. The RNA is preferably labeled with a non-radioactive tag, such as biotin-UTP. […] The labeled RNA binds the plate through the interaction between biotin and avidin/streptavidin. The RNA binding proteins present in the cell extract bind their RNA target at sequence specific sites, forming a ribonucleoprotein complex in the multi-well plate substrate. The ribonucleoprotein complex is captured on the plate and the plate is washed one or more times. An anti RNA binding protein antibody is then added to the plate. The plate is again washed one or more times and an labeled antibody, such as an HRP labeled antibody, is added to the multi-well plate substrate. The plate is washed one or more times, and HRP substrate is added. Chemiluminescence generated by HRP is detected using a plate reader.
# Five microliters of test compound dissolved in DMSO were added to each well of the plate. Five microliters of HeLa whole cell extract containing 8 μg of total protein was added to each well. The plate was centrifuged (5 minutes at 1000 rpm), and the assembly reactions were allowed to proceed for 1 hour at room temperature. The reaction mixtures were aspirated and 20 μl/well of Y12 antibody (diluted 1:1000 in RSB-500 (10 mM Tris/HCl, pH 7.5, 500 mM NaCl, 2.5 mM MgCl2, and 0.1% Nonidet P-40 (NP-40)) containing 1 mg/ml BSA, 2 mg/ml heparin, and 1× Complete EDTA-free Protease Inhibitor Cocktail) was added. The plate was centrifuged for 5 minutes at 1000 rpm, and incubated for 1 hour at room temperature.
# The plate was washed 10× with RSB-500 using an automated plate washer, followed by the addition of 20 ml/well of horseradish peroxidase-conjugated AffiniPure goat anti-mouse IgG+IgM (diluted 1:10,000 in RSB-500 containing 1 mg/ml BSA) for 1 hour at room temperature. The plate was centrifuged for 5 minutes at 1000 rpm. The plate was then washed 10× using an automated washer and 20 μl of SuperSignal ELISA Femto Maximum Sensitivity enhanced chemiluminescence substrate working solution was added into each well. The plate was then centrifuged for 5 minutes at 1000 rpm. The luminescence signal was measured using a plate Reader.
# The assay of the present invention can also be used to determine the dose response activity of a compound on an RNA binding protein-RNA complex.
# [1] = system: Sm core assembly on U4 snRNA in HeLa cytoplasmic extracts; experiment: magnetic beads assay for in vitro assembly of snRNPs (Sm core assembly); format: biochemical; conditions: cell extracts, AMP-PNP in place of ATP, FIG. 3A
# Protocol: For quantitative in vitro assembly assays on magnetic beads, cytoplasmic extracts were prepared and used for assembly on biotin-labeled snRNAs using the standard reconstitution conditions in 96-well plates. Following the reactions, Y12 antibodies immobilized onto the magnetizable Dynabeads Protein A (Dynal Biotech ASA, Oslo, Norway) in 100 μl of RSB-500 buffer (10 mM Tris/HCl pH 7.5, 500 mM NaCl, 2.5 mM MgCl2) containing 2 mg/ml heparin, 0.1% NP-40, and 0.2 U/μl RNasin Plus RNase inhibitor (Promega, Madison, Wis.) were added to each well. Immunoprecipitations in the 96-well plates were carried out with gentle mixing at 750 rpm in a Thermomixer (Eppendorf, Germany) at 30° C. for 1 hour. The plates were subsequently transferred to a Kingfisher 96 magnetic particle processor (Thermo Labsystems, Vantaa, Finland) for automatic washing of the Dynabeads in each well with wash buffer (RSB-500, 0.1% NP-40) 5 times. […] The plates were transferred to a Wallac Victor2 multi-label plate reader (Perkin-Elmer, Wellesley, Mass.) for luminescence measurements at 495 nm. The resulting data were analyzed with Microsoft Excel.
# To facilitate the study of the snRNP assembly process, an assay that allows a quantitative measurement of Sm core formation was developed (FIG. 2). […] This step also serves to amplify the signals for the luminescence measurement of the HRP activity on an automatic plate reader. […]
SMILES,formation of an RNA binding protein-RNA complex (SMN complex),Sm core assembly (snRNP complex formation) [1]
"O=C1C(SCCO)=C(SCCO)C(=O)c2ccccc21 [2,3-bis[(2-Hydroxyehtyl)thio]-1,4-naphthoquinone]",inhibits the formation of an RNA binding protein-RNA complex,–
"Nc1ncnc2c1ncn2[C@@H]1O[C@H](COP(=O)(O)OP(=O)(O)NP(=O)(O)O)[C@@H](O)[C@H]1O [AMP-PNP, adenosine 5′-(β,γ-imido)triphosphate]",–,does not permit the formation; also recorded: does not occur
Oc1c(Cl)cc(Cl)cc1Sc1cc(Cl)cc(Cl)c1O [bithionol],inhibits the formation of an RNA binding protein-RNA complex,–
Oc1c(Cl)cc(Cl)c(Cl)c1Cc1c(O)c(Cl)cc(Cl)c1Cl [hexachlorophene],inhibits the formation of an RNA binding protein-RNA complex,–
CC1(C)CCC2=C(O1)c1ccccc1C(=O)C2=O [beta-lapachone],inhibits the formation of an RNA binding protein-RNA complex,–
